Structures are written as SMILES. Where a name gives a salt, the structure may show the parent alone.

As usually defined, the IC50 is the concentration that gives 50% inhibition.

This experiment deals with T1, human TRPV4 (Homo sapiens, UniProt Q9HBA0).
T1 construct: expressed in transfected cells; host or cells: BHK/AC9 cells transduced with BacMam virus
T1 sequence (Q9HBA0 whole entry): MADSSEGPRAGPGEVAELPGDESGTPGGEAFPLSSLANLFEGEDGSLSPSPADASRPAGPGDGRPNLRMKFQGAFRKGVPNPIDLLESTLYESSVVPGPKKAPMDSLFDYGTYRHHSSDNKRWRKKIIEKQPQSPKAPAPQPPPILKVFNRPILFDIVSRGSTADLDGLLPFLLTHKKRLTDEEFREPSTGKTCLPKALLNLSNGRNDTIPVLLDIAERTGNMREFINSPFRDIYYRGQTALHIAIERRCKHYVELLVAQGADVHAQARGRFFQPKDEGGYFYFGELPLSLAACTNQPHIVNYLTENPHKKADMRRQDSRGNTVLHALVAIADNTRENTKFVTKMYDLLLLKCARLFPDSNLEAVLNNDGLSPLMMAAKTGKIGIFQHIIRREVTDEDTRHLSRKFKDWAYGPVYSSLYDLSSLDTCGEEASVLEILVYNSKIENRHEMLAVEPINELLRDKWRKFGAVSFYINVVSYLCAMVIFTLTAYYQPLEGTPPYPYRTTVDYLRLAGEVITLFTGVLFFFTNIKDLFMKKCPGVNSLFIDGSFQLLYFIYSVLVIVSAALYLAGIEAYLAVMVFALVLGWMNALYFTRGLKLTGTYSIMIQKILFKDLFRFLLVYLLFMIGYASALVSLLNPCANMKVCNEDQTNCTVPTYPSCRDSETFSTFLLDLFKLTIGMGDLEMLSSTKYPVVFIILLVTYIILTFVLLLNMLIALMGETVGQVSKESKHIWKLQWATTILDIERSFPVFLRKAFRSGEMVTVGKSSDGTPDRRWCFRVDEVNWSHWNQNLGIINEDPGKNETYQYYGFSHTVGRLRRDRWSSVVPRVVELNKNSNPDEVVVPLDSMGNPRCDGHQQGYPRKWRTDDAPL
Put plainly: FLIPR assay for hTRPV4 expressed in BHK cells: inhibition of Agonist Compound-induced calcium signal. To be noted: hTRPV4 in BHK/AC9 cells, FLIPR calcium signal, agonist at EC80; reported as range class; read-out: IC50. Format: cell-based. An outline of the steps:
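BHK/AC9 cells transduced with BacMam human TRPV4 (MOI 78), plated 15,000 per well and cultured 24 h at 37° C. Loaded with 2 μM Fluo-4 AM plus 500 μM Brilliant Black in HBSS for 1-1.5 h at room temperature in the dark; intracellular calcium signal read by FLIPR fluorescence.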
In the case of `N#Cc1ccc(O[C@H]2CN(S(=O)(=O)c3ccc(C#CC4CC4)nc3)C[C@@]2(O)CO)cc1F` [Example 226, 4-(((3S,4R)-1-((6-(cyclopropylethynyl)pyridin-3-yl)sulfonyl)-4-hydroxy-4-(hydroxymethyl)pyrrolidin-3-yl)oxy)-2-fluorobenzonitrile], the IC50 lay within 10 to 100 nM.

In the case of `CC#Cc1ccc(S(=O)(=O)N2C[C@H](Oc3ccc(C#N)c(F)c3)[C@](O)(CO)C2)nc1` [Example 227, 2-fluoro-4-(((3S,4R)-4-hydroxy-4-(hydroxymethyl)-1-((5-(prop-1-yn-1-yl)pyridin-2-yl)sulfonyl)pyrrolidin-3-yl)oxy)benzonitrile], the IC50 was 0.1 to 10 nM.

Turning to `C#Cc1ccc(S(=O)(=O)N2C[C@H](Oc3ccc(C#N)c(F)c3)[C@](O)(CO)C2)nc1` [Example 228, 4-(((3S,4R)-1-((5-ethynylpyridin-2-yl)sulfonyl)-4-hydroxy-4-(hydroxymethyl)pyrrolidin-3-yl)oxy)-2-fluorobenzonitrile], the IC50 was in the range of 10 to 100 nM.

Regarding `CC(C)(C)C#Cc1ccc(S(=O)(=O)N2C[C@H](Oc3ccc(C#N)c(F)c3)[C@](O)(CO)C2)nc1` [Example 229, 4-(((3S,4R)-1-((5-(3,3-dimethylbut-1-yn-1-yl)pyridin-2-yl)sulfonyl)-4-hydroxy-4-(hydroxymethyl)pyrrolidin-3-yl)oxy)-2-fluorobenzonitrile], the IC50 lay within 10 to 100 nM.

For the compound `N#Cc1ccc(O[C@H]2CN(S(=O)(=O)c3ccc(C#Cc4ccccc4)cn3)C[C@@]2(O)CO)cc1F` [Example 230, 2-fluoro-4-(((3S,4R)-4-hydroxy-4-(hydroxymethyl)-1-((5-(phenylethynyl)pyridin-2-yl)sulfonyl)pyrrolidin-3-yl)oxy)benzonitrile], the IC50 is 0.1 to 10 nM.

`N#Cc1ccc(S(=O)(=O)N2C[C@H](Oc3ccc(C#N)c(F)c3)[C@](O)(CO)C2)nc1` [Example 231, 6-(((3R,4S)-4-(4-cyano-3-fluorophenoxy)-3-hydroxy-3-(hydroxymethyl)pyrrolidin-1-yl)sulfonyl)nicotinonitrile]: the IC50 lay in the range of 10 to 100 nM.

With `N#Cc1ccc(O[C@H]2CN(S(=O)(=O)c3ccc(Cl)cn3)C[C@@]2(O)CN)cc1F` [Example 233, 4-(((3S,4S)-4-(aminomethyl)-1-((5-chloropyridin-2-yl)sulfonyl)-4-hydroxypyrrolidin-3-yl)oxy)-2-fluorobenzonitrile, Hydrochloride], the IC50 was in the range of 10 to 100 nM.

For `N#Cc1ccc(O[C@H]2CN(S(=O)(=O)c3ccc(Cl)cn3)C[C@]2(O)CN)cc1F` [Example 234, 4-(((3S,4R)-4-(aminomethyl)-1-((5-chloropyridin-2-yl)sulfonyl)-4-hydroxypyrrolidin-3-yl)oxy)-2-fluorobenzonitrile, Hydrochloride], the IC50 is 10 to 100 nM.

As to `N#Cc1ccc(O[C@H]2CN(S(=O)(=O)c3ccc(Cl)cc3C#N)C[C@]2(O)CN)cc1F` [Example 235, 4-(((3S,4R)-4-(aminomethyl)-1-((4-chloro-2-cyanophenyl)sulfonyl)-4-hydroxypyrrolidin-3-yl)oxy)-2-fluorobenzonitrile, Hydrochloride], the 50% inhibitory concentration (IC50) lay in the range of 0.1 to 10 nM.

For `N#Cc1ccc(O[C@H]2CN(S(=O)(=O)c3ccc(Cl)cc3C#N)C[C@]2(O)CNCCO)cc1F` [Example 236, 4-(((3S,4R)-1-((4-chloro-2-cyanophenyl)sulfonyl)-4-hydroxy-4-(((2-hydroxyethyl)amino)methyl)pyrrolidin-3-yl)oxy)-2-fluorobenzonitrile, 2,2,2-trifluoroacetate], the 50% inhibitory concentration (IC50) lay within 0.1 to 10 nM.

For `CNC[C@]1(O)CN(S(=O)(=O)c2ccc(C(F)(F)F)cc2C#N)C[C@@H]1Oc1ccc(C#N)c(F)c1` [Example 237, 4-(((3S,4S)-1-((2-cyano-4-(trifluoromethyl)phenyl)sulfonyl)-4-hydroxy-4-((methylamino)methyl)pyrrolidin-3-yl)oxy)-2-fluorobenzonitrile, 2,2,2-trifluoroacetate], the IC50 is 0.1 to 10 nM.

Take `CCNC[C@]1(O)CN(S(=O)(=O)c2ccc(C(F)(F)F)cc2C#N)C[C@@H]1Oc1ccc(C#N)c(F)c1` [Example 238, 4-(((3S,4S)-1-((2-cyano-4-(trifluoromethyl)phenyl)sulfonyl)-4-((ethylamino)methyl)-4-hydroxypyrrolidin-3-yl)oxy)-2-fluorobenzonitrile, 2,2,2-trifluoroacetate]: the IC50 was in the range of 0.1 to 10 nM.

As to `CC(C)NC[C@]1(O)CN(S(=O)(=O)c2ccc(C(F)(F)F)cc2C#N)C[C@@H]1Oc1ccc(C#N)c(F)c1` [Example 239, 4-(((3S,4S)-1-((2-cyano-4-(trifluoromethyl)phenyl)sulfonyl)-4-hydroxy-4-((isopropylamino)methyl)pyrrolidin-3-yl)oxy)-2-fluorobenzonitrile, 2,2,2-trifluoroacetate], the IC50 lay in the range of 0.1 to 10 nM.

For the compound `N#Cc1ccc(O[C@H]2CN(S(=O)(=O)c3ccc(Cl)cc3C#N)C[C@@]2(O)CN)cc1F` [Example 240, 4-(((3S,4S)-4-(aminomethyl)-1-((4-chloro-2-cyanophenyl)sulfonyl)-4-hydroxypyrrolidin-3-yl)oxy)-2-fluorobenzonitrile], the IC50 lay within 0.1 to 10 nM.

In the case of `Cn1ncc(Cl)c1S(=O)(=O)N1C[C@H](Oc2ccc(C#N)c(F)c2)[C@](O)(CN)C1` [Example 241, 4-(((3S,4S)-4-(aminomethyl)-1-((4-chloro-1-methyl-1H-pyrazol-5-yl)sulfonyl)-4-hydroxpyrrolidin-3-yl)oxy)-2-fluorobenzonitrile, 2,2,2-trifluoroacetate], the IC50 fell in the range of 10 to 100 nM.

In the case of `N#Cc1ccc(O[C@H]2CN(S(=O)(=O)c3ccc(F)cn3)C[C@@]2(O)CN)cc1F` [Example 242, 4-(((3S,4S)-4-(aminomethyl)-1-((5-fluoropyridin-2-yl)sulfonyl)-4-hydroxpyrrolidin-3-yl)oxy)-2-fluorobenzonitrile, 2,2,2-trifluoroacetate], the IC50 lay in the range of 10 to 100 nM.

`N#Cc1ccc(S(=O)(=O)N2C[C@H](Oc3ccc(C#N)c(F)c3)[C@](O)(CN)C2)cn1` [Example 243, 5-(((3S,4S)-3-(aminomethyl)-4-(4-cyano-3-fluorophenoxy)-3-hydroxpyrrolidin-1-yl)sulfonyl) picolinonitrile, 2,2,2-trifluoroacetate]: the IC50 is 10 to 100 nM.

As to `N#Cc1ccc(O[C@H]2CN(S(=O)(=O)c3ccc(C(F)F)cn3)C[C@@]2(O)CN)cc1F` [Example 244, 4-(((3S,4S)-4-(aminomethyl)-1-((5-(difluoromethyl)pyridin-2-yl)sulfonyl)-4-hydroxpyrrolidin-3-yl)oxy)-2-fluorobenzonitrile], the IC50 lay within 10 to 100 nM.

As for `N#Cc1ccc(O[C@H]2CN(S(=O)(=O)c3ccc(C(F)(F)F)nc3)C[C@@]2(O)CN)cc1F` [Example 245, 4-(((3S,4S)-4-(aminomethyl)-4-hydroxy-1-((6-(trifluoromethyl)pyridin-3-yl)sulfonyl)pyrrolidin-3-yl)oxy)-2-fluorobenzonitrile, Hydrochloride], the IC50 was 10 to 100 nM.

Turning to `N#Cc1ccc(O[C@H]2CN(S(=O)(=O)c3ccc(Cl)cn3)C[C@@]2(O)CN)cc1` [Example 246, 4-(((3S,4S)-4-(aminomethyl)-1-((5-chloropyridin-2-yl)sulfonyl)-4-hydroxpyrrolidin-3-yl)oxy)benzonitrile], the IC50 is 10 to 100 nM.

In the case of `N#Cc1ccc(O[C@H]2CN(S(=O)(=O)c3ccc(OC(F)F)cn3)C[C@@]2(O)CN)cc1F` [Example 247, 4-(((3S,4S)-4-(aminomethyl)-1-((5-(difluoromethoxy)pyridin-2-yl)sulfonyl)-4-hydroxypyrrolidin-3-yl)oxy)-2-fluorobenzonitrile, 2,2,2-trifluoroacetate], the IC50 is 10 to 100 nM.

Take `N#Cc1ccc(O[C@H]2CN(S(=O)(=O)c3ccc(OC(F)(F)F)cn3)C[C@@]2(O)CN)cc1F` [Example 248, 4-(((3S,4S)-4-(aminomethyl)-4-hydroxy-1-((5-(trifluoromethoxy)pyridin-2-yl)sulfonyl)pyrrolidin-3-yl)oxy)-2-fluorobenzonitrile]: the half-maximal inhibitory concentration (IC50) fell in the range of 10 to 100 nM.

`N#Cc1ccc(O[C@H]2CN(S(=O)(=O)c3ccc(OC(F)(F)F)nc3)C[C@@]2(O)CN)cc1F` [Example 249, 4-(((3S,4S)-4-(aminomethyl)-4-hydroxy-1-((6-(trifluoromethoxy)pyridin-3-yl)sulfonyl)pyrrolidin-3-yl)oxy)-2-fluorobenzonitrile, Hydrochloride]: the IC50 is 10 to 100 nM.

Turning to `N#Cc1ccc(O[C@H]2CN(S(=O)(=O)c3ccc(I)cn3)C[C@@]2(O)CN)cc1F` [Example 250, 4-(((3S,4S)-4-(aminomethyl)-4-hydroxy-1-((5-iodopyridin-2-yl)sulfonyl)pyrrolidin-3-yl)oxy)-2-fluorobenzonitrile, 2,2,2-trifluoroacetate], the IC50 is 0.1 to 10 nM.

As to `N#Cc1ccc(O[C@H]2CN(S(=O)(=O)c3ccc(Br)cn3)C[C@@]2(O)CN)cc1F` [Example 251, 4-(((3S,4S)-4-(aminomethyl)-1-((5-bromopyridin-2-yl)sulfonyl)-4-hydroxpyrrolidin-3-yl)oxy)-2-fluorobenzonitrile, 2,2,2-trifluoroacetate], the half-inhibitory concentration (IC50) lay in the range of 0.1 to 10 nM.

In the case of `CN1CCO[C@]2(C1)CN(S(=O)(=O)c1ccc(Cl)cc1C#N)C[C@@H]2Oc1ccc(C#N)c(F)c1` [Example 252, 4-(((4S,5R)-2-((4-chloro-2-cyanophenyl)sulfonyl)-9-methyl-6-oxa-2,9-diazaspiro[4.5]decan-4-yl)oxy)-2-fluorobenzonitrile], the IC50 lay within 0.1 to 10 nM.

With `N#Cc1ccc(O[C@H]2CN(S(=O)(=O)c3ccc(Cl)cc3C#N)C[C@@]23CNC(=O)O3)cc1F` [Example 254, 4-(((5S,9S)-7-((4-chloro-2-cyanophenyl)sulfonyl)-2-oxo-1-oxa-3,7-diazaspiro[4.4]nonan-9-yl)oxy)-2-fluorobenzonitrile], the IC50 lay in the range of 10 to 100 nM.

With `N#Cc1ccc(O[C@H]2CN(S(=O)(=O)c3ccc(Cl)cc3C#N)C[C@]23CNC(=O)O3)cc1F` [Example 255, 4-(((5R,9S)-7-((4-chloro-2-cyanophenyl)sulfonyl)-2-oxo-1-oxa-3,7-diazaspiro[4.4]nonan-9-yl)oxy)-2-fluorobenzonitrile], the IC50 was in the range of 0.1 to 10 nM.

(Values after US11229623B2 (GlaxoSmithKline Intellectual Property (No.2) Limited, priority 2016, dated 2022).)
